Data on one compound can be found in US11787847B2, “Method of identifying malodor modulating compounds” (FIRMENICH SA, priority 2017, dated 2023).

For test [1], the system named is mouse receptor Olfr1193, Olfr1093, Olfr1097, Olrf166, Olfr169, Olfr738 and Olfr742, and human receptor OR4S2 and OR52N5. The test is described as follows: cAMP HTRF dose-response assay in HEK293T cells expressing odorant receptors (Example 2). The format is cell-based. The conditions noted are these: increasing concentrations of odorant, receptors co-transfected with human Golf. In general terms: In TR-FRET formats the signal depends on donor and acceptor labels being close together.

Test [2] deals with mouse receptors Olfr1193, Olfr1093, Olfr1097, Olfr166, Olfr169, Olfr738, Olfr742 and human odorant receptor OR4S2. The test is described as follows: cAMP HTRF dose-response assay, DMTS/DMDS response profiles (Example 5). The class given is cell-based. The conditions noted are these: increasing concentration of compound; relative to butyric acid control. The protocol:
Functional dose-response experiments were performed to evaluate the level of DMTS activity of the modified cell line expressing individual putative DMTS receptors. Using a cell-based assay, mouse receptor Olfr1193, Olfr1093, Olfr1097, Olrf166, Olfr169, Olfr738 and Olfr742, and human receptor OR4S2 and OR52N5 were tested in an HEK293T cell line wherein the endogenous RTP1 gene has been activated and the odorant receptor chaperone protein was expressed (described in WO2016/201153). The mouse receptor genes were tagged with a Lucy-FLAG®-Rho tag combination and the human receptors were tagged with a Rho-FLAG® tag combination resulting in a tag:receptor fusion protein for the cell based assay. Receptor genes were co-transfected with the canonical olfactory human G-protein alpha subunit Golf gene and were exposed to increasing concentrations of the malodor odorant. Co-expression of the human Golf activates the Gs transduction pathway that leads to an internal cAMP increase upon binding to the appropriate ligand. Odorant-induced activity was detected by measuring the cAMP increase in the cytosol using an Homogeneous Time Resolved Fluorescence (HTRF) based kit (CisBio, cAMP dynamic 2 kit, cat. 62AM4PEJ). […]

In test [3] the test system is human receptors OR2L13, OR4C15, OR5AC2, OR8H3, OR11G2 or OR52N2. The test is described as follows: Ca2+ (Calcium 5 dye, FLIPR) dose-response assay in stable HEK293T cell lines (Example 3). The format is cell-based. The conditions noted are these: increasing concentrations of DMTS, co-expressed Galpha15. The protocol:
Functional dose-response experiments were performed to evaluate the level of DMTS activity of the modified cell lines expressing individual putative DMTS receptors. A cell line stably expressing a human receptor was generated in a HEK293T cell line for each of the following human receptors: OR2L13, OR4C15, OR5AC2, OR8H3, OR11G2 or OR52N2. The receptors were tagged with a FLAG®-Rho tag combination and stably co-expressed with the human G-protein alpha subunit Gals for the cell based assay. Co-expression of the human Gals activates the Gq transduction pathway that leads to an internal Ca^2+ increase upon binding to the appropriate ligand. Receptors were exposed to increasing concentrations of DMTS. Odorant-induced activity was detected by measuring the Ca^2+ increase in the cytosol using a calcium sensitive fluorescent dye (Molecular Devices, Calcium 5 dye, cat. R8186) and measuring the change in Relative Fluorescence Ratio (RFU) using a fluorometric imaging plate reader (Molecular Devices, FLIPR) following odorant exposure. […] A cell line lacking a receptor was used as a control for non-specific activity at high compound concentrations (‘No receptor’). The activity levels are reported by the potency of the DMTS induced-response for each receptor as a measure of the EC50 value.

The target of test [4] is T1, mouse receptor Olfr166 (Mus musculus, UniProt Q0VEL6).
T1 construct: cAMP HTRF
T1 sequence (Q0VEL6 1-312): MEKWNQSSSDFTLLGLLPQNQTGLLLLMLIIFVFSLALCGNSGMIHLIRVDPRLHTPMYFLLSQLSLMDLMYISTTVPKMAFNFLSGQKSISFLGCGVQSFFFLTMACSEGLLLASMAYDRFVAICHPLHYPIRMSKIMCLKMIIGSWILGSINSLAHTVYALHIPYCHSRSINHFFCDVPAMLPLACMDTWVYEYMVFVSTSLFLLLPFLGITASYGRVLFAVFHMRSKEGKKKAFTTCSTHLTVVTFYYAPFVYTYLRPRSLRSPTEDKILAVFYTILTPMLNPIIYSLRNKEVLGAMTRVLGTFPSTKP
The test is described as follows: cell-based dose-response, cAMP increase by HTRF, HEK293T cells (endogenous RTP1 activated) co-transfected with human Golf, Lucy-FLAG-Rho tagged receptor. The protocol: (§1) Functional dose-response experiments were performed to evaluate the level of DMTS activity of the modified cell line expressing individual putative DMTS receptors. Using a cell-based assay, mouse receptor Olfr1193, Olfr1093, Olfr1097, Olrf166, Olfr169, Olfr738 and Olfr742, and human receptor OR4S2 and OR52N5 were tested in an HEK293T cell line wherein the endogenous RTP1 gene has been activated and the odorant receptor chaperone protein was expressed (described in WO2016/201153). The mouse receptor genes were tagged with a Lucy-FLAG®-Rho tag combination and the human receptors were tagged with a Rho-FLAG® tag combination resulting in a tag:receptor fusion protein for the cell based assay. Receptor genes were co-transfected with the canonical olfactory human G-protein alpha subunit Golf gene and were exposed to increasing concentrations of the malodor odorant. Co-expression of the human Golf activates the Gs transduction pathway that leads to an internal cAMP increase upon binding to the appropriate ligand. Odorant-induced activity was detected by measuring the cAMP increase in the cytosol using an Homogeneous Time Resolved Fluorescence (HTRF) based kit (CisBio, cAMP dynamic 2 kit, cat. 62AM4PEJ). […] The activity levels are reported by the potency of the DMTS induced-response for each receptor as a measure of the EC50 value (the effective concentration at which the receptor responds at its half-maximal activation efficacy level for a given compound).
(§2) Functional dose-response experiments were performed to confirm the DMTS activity on the DMTS receptors identified in Example 2 and to further characterize their response to DMDS. Using the same cell-based assay described in Example 2, mouse receptors Olfr1193, Olfr1093, Olfr1097, Olfr166, Olfr169, Olfr738, Olfr742 and of human odorant receptor OR4S2 were tested with increasing concentration of DMTS, DMDS or butyric acid (control). […] A weak response for OR4S2 and Olfr169 to butyric acid was visible but was too weak to consider butyric acid as a representative ligand for these receptors. The activity levels are reported by the potency of DMTS or DMDS induced-response for each receptor as a measure of the EC50 value, EC50DMTS and EC50DMDS respectively. […] Competitive antagonists at the malodor binding site of these receptors have the potential to reduce the unpleasant perception of both DMTS and DMDS.

Test [5] deals with T2, mouse receptor Olfr738 (Mus musculus, UniProt L7N1X7).
T2 construct: cAMP HTRF
T2 sequence (L7N1X7 1-311): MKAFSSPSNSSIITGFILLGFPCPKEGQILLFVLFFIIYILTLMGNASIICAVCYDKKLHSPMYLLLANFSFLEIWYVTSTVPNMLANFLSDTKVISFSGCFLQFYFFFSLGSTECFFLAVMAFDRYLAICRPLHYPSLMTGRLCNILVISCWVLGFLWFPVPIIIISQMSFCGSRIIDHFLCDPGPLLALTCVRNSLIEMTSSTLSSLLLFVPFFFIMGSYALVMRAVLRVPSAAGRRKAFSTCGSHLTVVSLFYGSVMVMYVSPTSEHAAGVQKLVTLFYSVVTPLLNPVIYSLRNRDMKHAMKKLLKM
The test is described as above. The method, then:
as §1, §2

The structures appear in SMILES notation.

Usually EC50 stands for the concentration giving half of the maximal effect. On to `CSSSC` [DMTS, dimethyl trisulfide], for which, in test [1], the “receptor activity (cAMP increase in the cytosol)” value is listed as “dose-dependent increase of the receptor activity”. In addition, the “receptor activity (cAMP increase)” value in test [2] is given as “strong dose-dependent increase of the receptor activity”. Moreover, the “receptor activity (Ca2+ increase in the cytosol, RFU)” value in test [3] was “dose-dependent increase of receptor activity”. Also, the EC50 in test [4] (FIG. 2, Example 2, SEQ ID NO: 8) stood at 5 µM; in test [4] (FIG. 5, Example 5, SEQ ID NO: 8), 11 µM; in test [5] (FIG. 2, Example 2, SEQ ID NO: 12), 369 µM; in test [5] (FIG. 5, Example 5, SEQ ID NO: 12), 190 µM.
